Test: xn = mol fraction of the nth substance listed, in the solute-free solvent

CCCCOc1ccc(C(=O)CCN2CCCCC2)cc1.Cl + CCO + CCOC(C)=O
solubility (g/100 g solution)
Conditions	278.15 K	283.15 K	288.15 K	293.15 K	298.15 K	303.15 K	308.15 K	313.15 K	318.15 K	323.15 K
x2 = 0.1	4.4	5.22	6.12	7.23	8.43	9.93	11.7	13.6	15.8	18.4
x2 = 0.2	6.73	7.77	8.92	10.3	11.8	13.6	15.6	17.8	20.4	23.2
x2 = 0.3	9.22	10.6	12	13.6	15.3	17.3	19.6	22	24.8	27.7
x2 = 0.4	11.9	13.4	15.1	17	18.9	21.2	23.7	26.4	29.3	32.4
x2 = 0.5	14.7	16.5	18.3	20.4	22.6	25.2	27.9	30.8	33.9	37
x2 = 0.6	17.6	19.7	21.7	24.1	26.5	29.3	32.2	35.2	38.4	41.7
x2 = 0.7	20.8	23.2	25.4	28	30.6	33.5	36.6	39.8	43.1	46.5
x2 = 0.8	24.2	26.8	29.2	32	34.7	37.8	41	44.2	47.6	51
x2 = 0.9	27.9	30.7	33.2	36.1	39	42.2	45.5	48.8	52.2	55.5

O=C(O)C1CSCN1 (stereo not given) + O + CC#N
solubility (g/100 g solution)
Conditions	x2 = 0.1	x2 = 0.2	x2 = 0.3	x2 = 0.4	x2 = 0.5	x2 = 0.6	x2 = 0.7	x2 = 0.8	x2 = 0.9
283.15 K	0.0141	0.0241	0.0323	0.084	0.183	0.365	0.573	0.965	1.4
293.15 K	0.0189	0.0303	0.0491	0.106	0.242	0.433	0.729	1.24	1.89
303.15 K	0.0244	0.0416	0.0643	0.129	0.312	0.533	0.901	1.58	2.4
313.15 K	0.0292	0.0548	0.0787	0.159	0.392	0.679	1.17	2.04	3.06
323.15 K	0.0343	0.0734	0.0978	0.192	0.492	0.805	1.52	2.62	3.94
